Data as given in patent US7989420B2, “Smooth muscle relaxation” (New York Medical College, priority 2006, dated 2011).

Tests used:
[1] = system: VASP serine-239 phosphorylation (cGMP-dependent protein kinase activation); test: Western blot of VASP serine-239 phosphorylation in BPA; type: cell-based, bovine; conditions: organ culture with 100 μM ALA
Protocol: Rings from studies on contractile function were snap-frozen in liquid nitrogen, crushed and homogenized in lysis buffer (50 mM Tris-HCl, pH 8.0, 150 mM NaCl, 1 mM EDTA, 1% Triton X-100, 0.5% sodium deoxycholate, 0.1% sodium dodecyl sulfate, 1% of a protease inhibitor cocktail (Sigma) and 1% of a phosphatase inhibitor cocktail (Sigma). The protease inhibitor cocktail included 4-(2-aminoethyl)benzenesulfonyl floride hydrocholride, aprotinin, bestatin hydrochloride, N-(trans-epoxsuccinyl)-L-leucine-4-guanidinobutylamide, leupeptine hemisulfate, pepstatin and the phosphatase inhibitor cocktail included sodium orthovandate, sodium molybdate, sodium tartarate, and imidazole. Protein concentration was determined and 30 μg of protein samples were prepared in electrophoresis sample buffer containing 3% SDS and 3% β-mercaptoethanol and were separated using a 12% gel SDS-PAGE electrophoresis. Membranes were blocked for 1 h in TBST-5% milk and incubated overnight with phospho-VASP antibodies (diluted 1:1000). Membranes were exposed to a secondary horse radish peroxidase linked antibody and visualized with an ECL kit (Amersham). The membranes were subsequently exposed to X-OMAT autoradiography paper (Kodak). Membranes were stripped with TRIS-HCl buffer with 100 mM β-mercaptoethanol at 50° C. for 30 min. Membranes were subsequently washed, blocked and detected for total VASP. Each measurement of phosphorylated VASP was normalized to the total level of VASP, and data are reported as the percent of the levels of phosphorylated VASP seen in control arteries not exposed to agents which modulate the activity of sGC. Expression of sGC was detected with β-sGC subunit antibodies (diluted 1:2000), employing anti-rabbit secondary antibodies, and a protocol where membranes were blocked for 2 h. After analyzing for sGC protein expression, blots were stripped and re-probed for the detection of α-actin protein levels, which were used for normalization of data for statistical analysis based on protein loading.

[2] = system: endothelium-rubbed aorta; test: Protoporphyrin IX fluorescence in aorta of rats treated with ALA in vivo; set-up: species or system rat; conditions: single dose 60 mg/kg ALA i.p., 24 hours after treatment, vs saline-injected rats
Protocol: The rats were pretreated with 60 mg/kg ALA or with a saline vehicle (i.p.). After 24 hours they were anesthetized with 50 mg/kg sodium pentobarbital and the aorta was removed for in vitro studies. Isolated aortic rings were studied for changes in protoporphyrin IX fluorescence and force under the same conditions similar to those used for bovine pulmonary arteries described above, except that 1 gram of passive force was used.

[3] = biological target: T1, sGC (Bos taurus, UniProt P16068); test: sGC activity in BPA homogenates (cGMP by ELISA); type: biochemical, bovine; set-up: Guanylate cyclase activity of homogenates of BPA was measured by enzyme immunoassay; from tissue; host or cells: BPA (pulmonary artery rings, organ cultured) homogenate; conditions: organ culture with 100 μM ALA and/or 100 μM Fe
T1 sequence (P16068 1-619): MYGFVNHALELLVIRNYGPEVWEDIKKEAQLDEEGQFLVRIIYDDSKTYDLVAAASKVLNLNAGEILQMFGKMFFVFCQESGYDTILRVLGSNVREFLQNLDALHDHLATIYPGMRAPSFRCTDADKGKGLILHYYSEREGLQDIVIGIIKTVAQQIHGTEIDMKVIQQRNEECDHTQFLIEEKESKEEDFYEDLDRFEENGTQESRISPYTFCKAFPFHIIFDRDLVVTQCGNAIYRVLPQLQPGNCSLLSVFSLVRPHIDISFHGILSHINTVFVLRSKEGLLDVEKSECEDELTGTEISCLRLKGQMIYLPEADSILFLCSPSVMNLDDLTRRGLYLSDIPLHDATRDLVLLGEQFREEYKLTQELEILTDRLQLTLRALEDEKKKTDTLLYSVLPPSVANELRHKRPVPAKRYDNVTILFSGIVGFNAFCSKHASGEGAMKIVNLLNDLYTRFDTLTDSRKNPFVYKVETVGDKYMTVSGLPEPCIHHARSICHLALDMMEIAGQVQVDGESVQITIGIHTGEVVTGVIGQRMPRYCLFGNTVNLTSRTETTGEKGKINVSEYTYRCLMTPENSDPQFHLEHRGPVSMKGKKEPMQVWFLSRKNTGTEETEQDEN
T1 sequence (P19687 1-691 partner): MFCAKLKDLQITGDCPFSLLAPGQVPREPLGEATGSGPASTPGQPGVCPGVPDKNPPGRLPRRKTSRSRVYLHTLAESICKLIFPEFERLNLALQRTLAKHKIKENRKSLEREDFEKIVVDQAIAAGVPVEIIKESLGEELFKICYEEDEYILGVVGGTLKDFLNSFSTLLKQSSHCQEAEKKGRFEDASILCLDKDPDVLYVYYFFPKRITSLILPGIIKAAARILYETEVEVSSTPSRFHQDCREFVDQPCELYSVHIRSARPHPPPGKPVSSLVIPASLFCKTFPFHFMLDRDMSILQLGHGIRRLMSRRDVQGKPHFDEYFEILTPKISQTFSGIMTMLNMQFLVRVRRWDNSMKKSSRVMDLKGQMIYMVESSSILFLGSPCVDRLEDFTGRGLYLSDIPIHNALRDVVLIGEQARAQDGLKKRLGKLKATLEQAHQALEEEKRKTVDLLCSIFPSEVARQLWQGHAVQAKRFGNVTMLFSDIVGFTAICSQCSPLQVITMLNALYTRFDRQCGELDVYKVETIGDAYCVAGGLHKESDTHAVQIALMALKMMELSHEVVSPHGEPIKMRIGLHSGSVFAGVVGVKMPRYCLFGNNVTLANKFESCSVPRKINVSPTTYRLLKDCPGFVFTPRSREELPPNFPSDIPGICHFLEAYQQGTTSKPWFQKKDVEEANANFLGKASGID
Protocol: Guanylate cyclase activity of homogenates of BPA was measured by enzyme immunoassay of the amounts of cGMP generated. Briefly, BPA were pulverized in liquid nitrogen and homogenized in MOPS buffer 1:3 wt to buffer ratio at 5° C. Reaction mixture (0.2 ml final volume) contained 20 mM MOPS-KOH (pH 7.4), 0.1 mM GTP, 2 mM MgCl2, 0.3 mM of the phosphodiesterase inhibitor 3-Isobutyl-1-methylxanthine, a GTP-regenerating system consisting of 10 mM phosphocreatine and 150 U/ml creatine phosphokinase, and 0.1 ml of homogenate (11, 15), and test agents, as indicated. Assays of sGC activity were initiated by the addition of BPA homogenate. Incubations were conducted for 10 min at 37° C., and they were terminated by the addition of 0.1 ml of preheated 12 mM EDTA. This was followed by boiling the assay mixtures for 10 min and a subsequent addition of 5% trichloroacetic acid. The precipitate was removed by centrifugation and the supernatant was washed three times with water-saturated diethyl ether. Residual ether was removed by incubation at 70° C. for 5 minutes, prior to measurement of cGMP by ELISA (Cayman), as described in the manual supplied by manufacturer of the ELISA kit.

Q: For `NCC(=O)CCC(=O)O` [ALA, δ-aminolevulinic acid], which “VASP serine-239 phosphorylation” value [1] is on record?
A: increase in VASP phosphorylation

Q: And the “protoporphyrin IX fluorescence in endothelium-rubbed aorta” value [2]?
A: increased in protoporphyrin IX fluorescence

Q: And the “BPA homogenate sGC activity” value [3]?
A: increase in BPA homogenate sGC activity
